From the METLIN SMRT retention time set (Domingo-Almenara et al. 2019)

Assay: gradient 5% acetonitrile 3 min, to 50% in 2 min, to 85% in 15 min, held 3 min, 100 µL/min
Conditions: column: Zorbax Extend-C18 2.1 x 50 mm; eluents: water / acetonitrile, 0.1% formic acid
Summary of the method: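 Pure standards were analyzed in mixtures of ~100 molecules using HPLC coupled to a quadrupole time-of-flight mass spectrometer, in both positive and negative ionization mode. Separation used a Zorbax Extend-C18 column (2.1 × 50 mm, 1.8 μm) at 100 μL/min, with water and acetonitrile each containing 0.1% formic acid. Dead and dwell volumes were 40 μL and 900 μL, and data were collected over 3 months. Retention time was read from computationally picked adduct peaks, each inspected manually.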

Row | Compound | RP-LC retention time
1 | CCOC(=O)c1sc2nc(NC(=O)Cc3ccccc3)sc2c1C | 1020 s
2 | CCn1ncc(N2CCCC(CC(=O)O)C2)cc1=O (stereo not drawn) | 632 s
3 | COc1ccc(CNC(=O)c2cc(NC(C)=O)cc3nc(C)ccc23)cc1OC | 575 s
4 | Cc1noc([C@@H]2CN(C(=O)c3cc(C4CC4)[nH]n3)C[C@H]2C(N)=O)n1 | 596 s
5 | Cc1noc(-c2ccc(=O)n(Cc3cccc(C(F)(F)F)c3)c2)n1 | 806 s
6 | COc1ccccc1CC(=O)Nc1cccn2c(C)nnc12 | 678 s
7 | Cc1ccc(S(=O)(=O)Nc2cccc(-c3nc4ncccn4c3C)c2)cc1 | 670 s
8 | COc1cc(CN2C[C@@H]3C(=O)N(CCCN4CCCC4=O)C(=O)[C@@H]3C2)ccc1OC(C)C | 610 s
9 | Cc1nc(-c2cccc(C(=O)N3CCN(c4nc5cccnc5o4)CC3)c2)no1 | 688 s
10 | Cc1cc(C)c2c(n1)nn1c(N3CCN(c4ccccn4)CC3)cc(C)nc21 | 561 s
11 | CSc1ccc(-c2noc(CN3C(=O)COc4cc(C)ccc43)n2)cc1 | 1130 s
12 | Cn1c(=O)oc2cc(-c3noc(-c4ccc(C#N)cc4)n3)ccc21 | 988 s
13 | O=C(NCc1cccs1)C1CCCN(c2nnc3ccc(C(F)(F)F)cn23)C1 (stereo not drawn) | 668 s
14 | CN(CCc1noc(C2CN(C(=O)c3ccsc3)C2)n1)C(=O)C1CC1 | 647 s
15 | O=S(=O)(c1cccc(F)c1)N1CCC(Cc2nncn2-c2ccccc2)C1 (stereo not drawn) | 752 s
16 | CCC(C)NC(=O)CSc1ccc(-n2nccc2-c2ccc(OC)cc2)nn1 (stereo not drawn) | 989 s
17 | COc1ccccc1NC(=O)C1CCCN(S(=O)(=O)c2c[nH]c(C(=O)N3CCCCCC3)c2)C1 (stereo not drawn) | 898 s
18 | CCc1nc2cc(-c3noc(-c4cc5ccccc5oc4=O)n3)ccc2o1 | 1010 s
19 | Cc1ccc(-n2nc(N3CCN(C(=O)Nc4ccccc4C)CC3)ccc2=O)cc1 | 787 s
20 | Cc1noc(-c2nc(Cc3cccc(F)c3)no2)n1 | 940 s

Row | Compound | RP-LC retention time
21 | O=C(C1CCCN(c2nccnc2Oc2ccccc2)C1)N1CCN(c2cccc(Cl)c2)CC1 (stereo not drawn) | 1180 s
22 | CCNc1cc(N2CCC(CCC(=O)N3CCN(c4ncccn4)CC3)CC2)ncn1 | 626 s
23 | O=C(c1ccc2c(c1)OCO2)N1CCC2(CC1)N(c1ccccc1)C(=O)CS2(=O)=O | 685 s
24 | CN(C)C(=O)c1csc(S(=O)(=O)N2CCC(C(=O)N3CCN(c4ccccc4)CC3)CC2)c1 | 768 s
25 | COc1ccc2c(c1)C1(CCN(C(=O)Nc3ccc(C)cc3)C1)C(=O)N2 (stereo not drawn) | 745 s
26 | CNC(=O)NCCC1CCN(S(=O)(=O)c2ccc(C)cc2)CC1 | 708 s
27 | CCCCOC(=O)c1cccnc1 | 874 s
28 | C=CCn1c(=O)c2ccccc2n(Cc2nc(-c3ccccc3Cl)no2)c1=O | 1020 s
29 | COc1ccc(N2CCN(c3cc(SCC(=O)Nc4ccccc4OC)ncn3)CC2)cc1 | 1040 s
30 | CCN(CC)CCNC(=O)C1CCN(c2nc3ccccc3n3cccc23)CC1 | 579 s
31 | COc1cc(NC(=O)c2ccc3cccc(O)c3n2)cc(OC)c1OC | 880 s
32 | CCNC(=O)CCc1nc2ccccc2n(CC(=O)Nc2ccccc2OCC)c1=O | 775 s
33 | COc1ccc(NC(=O)C2CCN(S(=O)(=O)c3cc(-c4noc(C)n4)cs3)CC2)cc1Cl | 946 s
34 | COCCCNC(=O)C(C)n1nc(C)c2c(C)n(-c3ccccc3)nc2c1=O (stereo not drawn) | 686 s
35 | COc1ccc(C(=O)N2CCN(c3cc(C)n4cnnc4n3)CC2)c(OC)c1 | 999 s
36 | CCCN(C)c1nccnc1OC1CCN(Cc2cccnc2)C1 (stereo not drawn) | 594 s
37 | CCn1c(SCC(=O)Nc2nc(-c3ccccc3)cs2)nnc1-c1cc2ccccc2o1 | 1070 s
38 | CN(CC1(C)CCOCC1)S(=O)(=O)c1cn(C)cn1 | 615 s
39 | O=C(Cn1nc2c(N3CCCCCC3)nccn2c1=O)NC1CCCCC1 | 681 s
40 | Cc1ccc(-c2ccc3nn(CC(=O)Nc4ccc(C)cc4Br)c(=O)n3n2)cc1 | 960 s

Row | Compound | RP-LC retention time
41 | O=C(CC1CCCC1)N1CCCC(c2nc(-c3ccncc3)n[nH]2)C1 (stereo not drawn) | 577 s
42 | Cc1noc(CN2CCN(C3CCN(Cc4cc(C(F)(F)F)ccc4Cl)C3)C2=O)n1 (stereo not drawn) | 660 s
43 | Cc1ccccc1NS(=O)(=O)c1ccc2c(c1)C(=O)N(C)c1ncccc1O2 | 892 s
44 | CCCOc1ccc(CN2C[C@@H](CO)[C@H](N(C)C)C2)cc1OC | 551 s
45 | c1cnc(N2CCN(c3nn4nnnc4c4ccccc34)CC2)nc1 | 807 s
46 | CCc1nc2ccccc2c(=O)n1Cc1noc(-c2cccc(OC)c2OC)n1 | 872 s
47 | CCOC(=O)c1csc(NC(=O)c2sc3ccccc3c2Cl)n1 | 999 s
48 | CC(C)c1nc2c(N)cccn2n1 | 613 s
49 | CC(=O)N1c2ccc(S(=O)(=O)N3CCCCC3)cc2CC1C(=O)N1CCCC1 (stereo not drawn) | 743 s
50 | CCCNC(=O)C1CCCN(c2ccc(SCC(=O)Nc3cc(Cl)ccc3C)nn2)C1 (stereo not drawn) | 720 s
51 | CC(=O)Nc1ccc(S(=O)(=O)N2CCC(CC(=O)N3CCN(c4ccccn4)CC3)CC2)cc1 | 581 s
52 | Cc1cc(N(C)C)n2nc(CN3CCN(c4cccc(Cl)c4)CC3)nc2n1 | 635 s
53 | FC(F)(F)c1cccc(-c2ccc(CNCC3CCNCC3)o2)c1 | 580 s
54 | Cc1cc(F)ccc1NC(=O)C1CN(S(=O)(=O)C2CC2)CC12CCCCC2 (stereo not drawn) | 964 s
55 | COCCCNC(=O)c1csc(-c2cnccn2)n1 | 625 s
56 | O=C(Nc1ccc(Br)c(F)c1)c1cnc(-c2ccccc2)nc1-c1ccncc1 | 1030 s
57 | Cc1ccnc(N2CCCC(C(=O)NCC3CCN(Cc4ccc(Cl)cc4)CC3)C2)n1 (stereo not drawn) | 624 s
58 | COC(=O)c1c(-c2ccccc2)noc1NCc1ccccc1 | 1050 s
59 | O=C(c1ccc2ncnc(N3CCCC3)c2c1)N1CCN(c2ccccc2)CC1 | 646 s
60 | Cc1ccccc1CNC(=O)C1(C)Oc2cccnc2NC1=O (stereo not drawn) | 702 s

Second part, the compound after the results:

Row | RP-LC retention time | Compound
61 | 943 s | Cc1ccc(CCNC(=O)CN2C(=O)C3CCCCN3c3ccc(S(=O)(=O)N(C)C)cc32)cc1 (stereo not drawn)
62 | 726 s | CC(C)n1cnc(S(=O)(=O)N2CCCC(C(=O)Nc3cccc(F)c3)C2)c1 (stereo not drawn)
63 | 1210 s | Cc1ccc(C)c(-c2cc3c(=O)n(Cc4nc(-c5ccc(F)cc5)no4)ncn3n2)c1
64 | 780 s | O=C(c1cn(-c2cc(N3CCSCC3)ncn2)cn1)N1CCCc2ccccc21
65 | 729 s | Cc1nc(C)c(C(=O)N2CC(n3cc(COc4ccc(F)cc4)nn3)C2)s1
66 | 549 s | COC(=O)Cn1c(C)cc(=O)c2cccc(F)c21
67 | 847 s | CN1C(=O)C(C)(C(=O)Nc2ccc(F)cc2)Oc2cccnc21 (stereo not drawn)
68 | 991 s | Cc1ccc(S(=O)(=O)N2CC(=O)N(c3ccccc3C)C(C)(C(=O)NC3CCCC3)C2)cc1 (stereo not drawn)
69 | 968 s | CCOc1ccc(CC(=O)N2CCCn3nc(-c4cccc(C)c4)cc3C2)cc1
70 | 744 s | O=C(Nc1ccc(Br)cc1F)Nc1c(-c2ccc(F)cc2)nc2ccccn12
71 | 843 s | CCc1nc(-c2ccc(C(=O)N3CCN(c4ncccn4)CC3)cc2)cs1
72 | 844 s | COCc1nnc(C(=O)Nc2ccc(C(=O)NCCc3c[nH]c4ccc(C)cc34)cc2)s1
73 | 902 s | CCOc1ccc(CNC(=O)c2cc(S(=O)(=O)N3CCCC3)c(C)n2C)cc1
74 | 1010 s | Cc1ccc(-n2c(N3CCC(C(=O)NC(C)c4ccc(F)cc4)CC3)nc3ccsc3c2=O)cc1 (stereo not drawn)
75 | 912 s | CCc1ccc(NC(=O)C2CCN(S(C)(=O)=O)c3ccccc3O2)cc1 (stereo not drawn)
76 | 731 s | O=C(Nc1ccc2c(c1)OCCO2)N1CCN(Cc2ccccc2)c2ncccc21
77 | 800 s | Cc1ccc(-n2c(=O)c3c(cc(C)n3C)n(CC(=O)Nc3ccc(F)cc3)c2=O)cc1
78 | 818 s | Cc1cc(C)cc(NC(=O)C2CCN(C(=O)C3Sc4ccccc4NC3=O)CC2)c1 (stereo not drawn)
79 | 821 s | Cc1ccc(CNC(=O)N2CC(n3cc(COc4ccc(F)cc4)nn3)C2)cc1
80 | 614 s | COc1ccc(CC(=O)N2C[C@@H]3C[C@H]2C[C@@H]3NC(=O)c2cccnc2)cc1Cl
81 | 1280 s | COc1ccc(NC(=O)c2c(O)c3cccnc3n(-c3cccc(F)c3)c2=O)cc1Cl
82 | 698 s | CNC(=O)c1ccc2c(c1)CCCN2C(=O)c1ccc(F)cc1
83 | 766 s | O=C(Nc1ccc(-c2ccno2)cc1)C1CCN(C(=O)C2Sc3ccccc3NC2=O)CC1 (stereo not drawn)
84 | 832 s | COc1ccc(N2CCN(C(=O)c3ccc4c(c3)N(C)C(=O)C3CCCCN43)CC2)cc1 (stereo not drawn)
85 | 1140 s | COc1ccc2c(c1)CCc1sc(NC(=O)c3ccc(F)cc3)nc1-2
86 | 640 s | COC(=O)Nc1ccc(S(=O)(=O)N2CCCC(C(=O)O)C2)cc1 (stereo not drawn)
87 | 837 s | Cc1cc(N2CCCCC2)nc(N2CCN(C(=O)c3ccc(-c4ccccc4)cc3)CC2)n1
88 | 807 s | Cc1ccccc1S(=O)(=O)Nc1ccc(C(=O)N2CCCC2C(=O)NCCC(C)C)cc1 (stereo not drawn)
